Experiment [1] has as its system bleomycin (BLM)-induced skin fibrosis model. The note with it: reported in the literature; cited from earlier work.
In experiment [2] the test system is dermal fibroblasts from SSc patients. Briefly: TGF-β-induced human fibroblast activation, SSc patients. The class given is cell-based. The note with it: concentration of 1000 nmol/L; TGF-β 10 ng/mL, 24 hours. An excerpt:
(§1) Full-thickness skin biopsies were obtained from clinically involved skin of patients affected by dcSSc, who were recruited from the Systemic sclerosis clinic within the Leeds Institute of Rheumatic and Musculoskeletal Medicine (UK). Control skin samples were from healthy donors. All patients with dcSSc and healthy donors provided written informed consent through the stratification for risk of progression in systemic sclerosis (STRIKE SSC), which had been approved by the North-East Research Ethic committee. Patients with SSc fulfilled the 2013 ACR/EULAR classification criteria for SSc and were classified as having dcSSc according to the LeRoy and Medsger criteria.
Dermal fibroblasts were isolated from the skin biopsy samples of healthy donors and SSc patients. […]
(§2) Total RNA was extracted using the Zymo quick RNA mini prep kit according to manufacturer's instructions (Zymo Research Corporation). […] Quantitative RT-PCR was performed in triplicates using SYBR Green RT-PCR Mastermix Kit (Thermo Fisher Scientific) and the ABI PRISM 7500 Fast Real Time PCR System (Applied Biosystems). […]
FIGS. 5(A)-5(B) show the effect of Compound A on human fibroblast activation. […] Each bar represents the mean±SEM of the measured values from three wells. […]

The subject of experiment [3] is dermal fibroblasts from healthy donors. Description: TGF-β-induced human fibroblast activation, healthy donors. The class given is cell-based. The note with it: concentration of 1000 nmol/L; TGF-β 10 ng/mL, 24 hours.
Excerpt: as §1
Dermal fibroblasts were isolated from the skin biopsy samples of healthy donors and SSc patients. The skin biopsy samples were minced with a scalpel, placed in plastic culture dishes and covered with Dulbecco's Modified Eagle Medium (DMEM) with 4.5 g/L glucose (Thermo Fisher Scientific) supplemented with 20% fetal calf serum (FCS, Thermo Fisher Scientific), 1% penicillin and streptomycin (Merck), and 1 μg/ml of amphotericin (Thermo Fisher Scientific) and cultured at 37° C. in a humidified atmosphere of 5% CO2. Additional growth medium was added after 3 days with no amphotericin. After 7 days, culture medium was replaced with medium containing 10% FCS and subsequently replenished every 2 to 3 days. When a visible outgrowth of cells was obtained, the fibroblasts were passaged. Briefly, cells were incubated with PBS containing 0.1% EDTA for 5 min, and then detached with trypsin-EDTA solution (Merck), and cultured until 70-80% confluent in DMEM (1 g/L glucose) supplemented with 10% FCS and 1% penicillin and streptomycin. After a subsequent passage, primary cells were retrovirally immortalized using human telomerase reverse transcriptase. […]
as §2
FIGS. 5(A)-5(B) show the effect of Compound A on human fibroblast activation. Dermal fibroblasts from a healthy individual or an SSc patient were grown to confluence, and placed under starvation for 24 hours in a medium supplemented with 1% fetal bovine serum (A: mRNA expression of ACTA2 and COL1A1 in dermal fibroblasts of healthy individuals was measured by real-time PCR, and normalized for the GAPDH expression level. B: mRNA expression of ACTA2 and COL1A1 in dermal fibroblasts of SSc patients was measured for by real-time PCR, and normalized for the GAPDH expression level). Each bar represents the mean±SEM of the measured values from three wells. […]

Experiment [4] deals with pre-established BLM-induced skin fibrosis. The note with it: imatinib at 150 mg/kg orally once daily day 22-42, positive control.

For α-MSH [reference compound], in experiment [1], the skin fibrosis entry is on record as “suppress”. Also, the “TGF-β-induced increase in αSMA mRNA expression” value in experiment [2] and in experiment [3] was “suppressed” throughout.

Regarding `Cc1ccc(NC(=O)c2ccc(CN3CCN(C)CC3)cc2)cc1Nc1nccc(-c2cccnc2)n1` [imatinib, reference compound], in experiment [4], the “BLM-induced increase of skin thickness” value is recorded as “improved”, the “BLM-induced increase of αSMA-positive myofibroblasts in the dermis” value is given as “improved” and the “BLM-induced loss of dermal white adipose tissue” value is “improved”.
